According to BindingDB's records for doi:10.1016/j.bmcl.2010.05.049 (University of Athens, 2010):

assay: Binding affinity to Influenza A Weybridge(H7N7) virus Matrix protein 2 by spectrophotometry

Row | Compound | Kd [µM]
1 | CN1CCCC12C1CC3CC(C1)CC2C3 (stereo unspecified) | 2.93
2 | C1CNC(C23CC4CC(CC(C4)C2)C3)C1 (stereo unspecified) | 0.51
3 | NC1CCCCCCC1 [Cyclooctanamine] | 1.83
4 | O=C1CCC2(N1)C1CC3CC(C1)CC2C3 (stereo unspecified) | 1.49
5 | CCC1(N)C2CC3CC(C2)CC1C3 (stereo unspecified) | 6.7
6 | C1CCC2(NC1)C1CC3CC(C1)CC2C3 (stereo unspecified) | 0.39
7 | C1CCC(C23CC4CC(CC(C4)C2)C3)NC1 (stereo unspecified) | 1.51
8 | NC1CCCCCC1 [Cycloheptanamine] | 16.2
9 | NC1C2CC3CC(C2)CC1C3 (stereo unspecified) [2-Adamantanamine] | 2.36
10 | CCCC1(N)C2CC3CC(C2)CC1C3 (stereo unspecified) | 8.71
11 | CC1CCC2(N1)C1CC3CC(C1)CC2C3 (stereo unspecified) | 1.5
12 | C1CNC2(C1)C1CC3CC(C1)CC2C3 (stereo unspecified) | 1.16
13 | NC12CC3CC(C1)CC(F)(C3)C2 | 4.86
14 | NC12CC3CC(CC(C3)C1)C2 [SYMADINE] | 0.32
15 | CC1(N)C2CC3CC(C2)CC1C3 (stereo unspecified) | 3.6
16 | CCC1CCC2(N1)C1CC3CC(C1)CC2C3 (stereo unspecified) | 5.58
